The source of these data is patent US20210315893A1 (Galapagos NV, priority 2017, published 2021).

The subject of assay [1] is HFL-1 cells. Nature of the assay: IL-8 production assay (S1P induced IL-8). Type of assay: cell-based. As to conditions: Homo sapiens, HFL1; S1P (1 μM) induced IL-8 in HFL-1 cells, starvation medium without HSA; read-out: IL8 EC50. As for the experimental part: This assay is designed to test inhibitory activity of compounds on S1P induced IL-8 on HFL-1 cells, ahuman fetal lung fibroblast cell line.
Human Fetal Lung cells (HFL-1) are seeded in 96 well plates in growth medium (F12K+10% heat inactivated FBS+l1% Pen/strep). After overnight incubation at 37° C., […] cells are refreshed with starvation medium without HSA (F12K+1% FBS+1% Pen/strep). On day three, compounds are added (10 point serial dilution, 30 μM highest concentration, 1/3 dilution, 0.3% DMSO final) and plates are incubated for one h at 37° C., 5% CO2. Subsequently S1P at 1 μM final concentration is added and plates are incubated for 16 to24 h at 37° C., […] after which the supermatant was collected. IL-8 levels in the supernatant are determined with the IL-8 ELISA of R&D systems.

Assay [2] concerns HFL-1 cells. Description: IL8 assay in the presence of Human Serum Albumin. As to conditions: HFL1, read-out: HSA IL8 EC50.
The target of a further assay is T1, S1PR2 (Homo sapiens, UniProt O95136).
T1 construct: expressed in transfected cells
Description: S1PR2 binding assay (competition with radioactively labeled S1P, SpA). As to conditions: membranes from stable cell line over expressing S1PR2, SpA beads; read-out: S1P2 EC50 (nM), S1PR2 binding EC50. Summed up:
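Competition with [3H]S1P for membranes from a stable S1PR2-overexpressing cell line, 20 μg/well, captured on PVT-WGA SPA beads, in 20 mM Tris pH 7.5, 10 mM MgCl2, 100 mM NaCl, 0.4% fatty-acid-free BSA, 1 mM Na3VO4. 2 h at room temperature, then centrifugation and scintillation counting.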

For assay [3], the target named is T2, human GPCR sphingosine 1-phosphate receptor 2 (Homo sapiens, UniProt O95136).
T2 construct: host or cells: CHO
Nature of the assay: S1PR2 antagonist Ca2+ flux assay. Type of assay: cell-based. As to conditions: antagonist mode, CHO-S1PR2 cells, S1P at EC80, Ca2+ fluorescence; read-out: S1P2 EC50 (nM), S1P2 antagonist EC50. Summed up: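 CHO cells stably expressing human S1PR2, serum-starved 1 h, Fluo8-loaded; compound-evoked Ca2+ fluorescence read 3 min (agonist mode), then after 15 min S1P at EC80 added and read 3 min (antagonist mode). Max/baseline fluorescence ratios normalised to vehicle and S1P EC100 or EC50 controls; EC50 derived.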

T1 sequence (O95136 whole entry): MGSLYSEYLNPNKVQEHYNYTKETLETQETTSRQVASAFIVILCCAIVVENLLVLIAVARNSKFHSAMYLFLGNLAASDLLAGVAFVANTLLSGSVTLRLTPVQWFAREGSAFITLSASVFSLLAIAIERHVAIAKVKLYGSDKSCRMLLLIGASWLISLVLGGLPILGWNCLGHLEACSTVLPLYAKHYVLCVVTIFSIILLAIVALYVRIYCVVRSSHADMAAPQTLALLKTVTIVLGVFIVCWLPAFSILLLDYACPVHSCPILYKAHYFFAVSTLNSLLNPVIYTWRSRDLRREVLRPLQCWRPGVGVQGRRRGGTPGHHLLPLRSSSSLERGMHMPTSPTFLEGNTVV
T2 sequence (O95136 whole entry): as above

Broadly, the EC50 is the concentration at which the effect is half-maximal. Turning to `N#Cc1cc2[nH]c(Cc3nn(CC(=O)N4CCOCC4)c(=O)c4cccc(C5CC5)c34)nc2cc1OCC(F)F` [Compound 54, 2-[[8-cyclopropyl-3-(2-morpholino-2-oxo-ethyl)-4-oxo-phthalazin-1-yl]methyl]-6-(2,2-difluoroethoxy)-3H-benzimidazole-5-carbonitrile], the EC50 is 32.2 nM in the assay with HFL-1 cells [1], 41.1 nM in the assay on HFL-1 cells [2], 93.5 nM on S1PR2 and 23.8 nM in assay [3].

Turning to `O=c1c2ccccc2c(Cc2nc3cc(Cl)c(OC(F)(F)F)cc3[nH]2)nn1CC1CNC1` [Compound 61, 2-(azetidin-3-ylmethyl)-4-[[6-chloro-5-(trifluoromethoxy)-1H-benzimidazol-2-yl]methyl]phthalazin-1-one], the EC50 with HFL-1 cells [1] worked out at 591 nM; in the assay on HFL-1 cells [2], 1120 nM; at S1PR2, 581 nM; in assay [3] it was 677 nM.

Turning to `O=c1c2ccccc2c(Cc2nc3cc(Cl)c(OC(F)(F)F)cc3[nH]2)nn1C1CCNCC1` [Compound 62, 4-[[6-chloro-5-(trifluoromethoxy)-1H-benzimidazol-2-yl]methyl]-2-(4-piperidyl)phthalazin-1-one], the EC50 with HFL-1 cells [1] was found to be 349 nM; in the assay on HFL-1 cells [2], 6430 nM; at S1PR2 it was 453 nM; in assay [3], 968 nM.

As for `N#Cc1cc2nc(Cc3nn(C4CN(CC(=O)O)C4)c(=O)c4ccccc34)cn2cc1OCC1CC1` [Compound 73], the EC50 with HFL-1 cells [1] came out at 365 nM; with HFL-1 cells [2], 563 nM; on S1PR2 it was 478 nM; in assay [3], 1330 nM.

`CN(C)CC(C(=O)O)n1nc(Cc2nc3cc(OCC(F)F)c(C#N)cc3[nH]2)c2ccccc2c1=O` (stereo not drawn) [Compound 74, 2-[4-[[6-cyano-5-(2,2-difluoroethoxy)-1H-benzimidazol-2-yl]methyl]-1-oxo-phthalazin-2-yl]-3-(dimethylamino)propanoic acid]: the EC50 with HFL-1 cells [1] was found to be 823 nM; with HFL-1 cells [2] it was 779 nM; at S1PR2, 5330 nM; in assay [3] it was 2660 nM.

For the compound `N#Cc1cc2[nH]c(Cc3nn(C(CN4CCC4)C(=O)O)c(=O)c4ccccc34)nc2cc1OCC(F)F` (stereo not drawn) [Compound 75, 3-(azetidin-1-yl)-2-[4-[[6-cyano-5-(2,2-difluoroethoxy)-1H-benzimidazol-2-yl]methyl]-1-oxo-phthalazin-2-yl]propanoic acid], the EC50 in the assay with HFL-1 cells [1] was 938 nM; in the assay with HFL-1 cells [2] it was 1300 nM; at S1PR2, 2920 nM; in assay [3], 3850 nM.

On to `O=C(O)Cc1nn(Cc2nc3cc(OCC(F)F)c(Cl)cc3[nH]2)c2ccccc2c1=O` [Compound 78, {1-[6-Chloro-5-(2,2-difluoro-ethoxy)-1H-benzoimidazol-2-ylmethyl]-4-oxo-1,4-dihydro-cinnolin-3-yl}-acetic acid], for which the EC50 with HFL-1 cells [1] worked out at 4.65 nM; in the assay with HFL-1 cells [2] it was 41.5 nM; at S1PR2, 55.9 nM; in assay [3], 6.16 nM.

As for `CCC(C(=O)O)c1nn(Cc2cn3cc(OCC4CC4)c(C(F)(F)F)cc3n2)c2ccccc2c1=O` (stereo not drawn) [Compound 103, 2-[1-[[6-(cyclopropylmethoxy)-7-(trifluoromethyl)imidazo[1,2-a]pyridin-2-yl]methyl]-4-oxo-cinnolin-3-yl]butanoic acid], the 50% effective concentration (EC50) in the assay on HFL-1 cells [1] amounted to 18.9 nM; with HFL-1 cells [2], 108 nM; on S1PR2, 223 nM; in assay [3] it was 4.59 nM.

Consider `O=C(O)c1nn(Cc2nc3cc(OCC4CC4)c(C(F)(F)F)cc3[nH]2)c2ccccc2c1=O` [Compound 104, (1-[[5-(cyclopropylmethoxy)-6-(trifluoromethyl)-1H-benzimidazol-2-yl]methyl]-4-oxocinnoline-3-carboxylic acid)], for which the EC50 with HFL-1 cells [1] was 4.55 nM; in the assay on HFL-1 cells [2], 27 nM; on S1PR2, 22.4 nM; in assay [3] it was 3.02 nM.
